Measured values as given in patent publication US20140303242A1, “Sparstolonin B Based Pharmaceutical Agent to Treat Pathological Angiogensis” (University of South Carolina, priority 2013, published 2014).

Tests used:
HUVECs [1] = assay: Matrigel tube formation assay (HUVECs); format: cell-based, human; details: concentrations between 1 and 100 μM, 4 h, p<0.05
Description: (§1) To initially determine if SsnB inhibited pro-angiogenic cell functions, a tube formation assay with Matrigel was performed. Growth factor reduced Matrigel (BD Biosciences, Bedford, Mass.) was added to the wells of a 96 well polystyrene culture plate and incubated at 37° C. for 30 minutes. Cells (HUVECs, HCAECs, or HMVECs at passage 2 to 4) were added to each well to reach a final number of 20,000 cells per well. SsnB was added to the wells at a concentration of 1, 10, or 100 μM. Endothelial cell medium with DMSO (0.1%) was used as a vehicle control. Each group contained 4 replicates. The plates were placed in an incubator for 4 h. During the incubation, the endothelial cells formed elongated structures called cords, also known as tubes. After 4 h, neutral buffered formalin was added to fix the cells. Pictures of three non-overlapping fields were taken from each well. The lengths of single cell endothelial cords were measured with Image-Pro Plus (Media Cybernetics, Silver Spring, Md.), and the sum of tube lengths for each well was determined. The average total length and standard deviation for each group were determined, and the appropriate statistical tests (ANOVA and Newman-Keuls) were completed. The tube formation assay was replicated three times for both HUVECs and HCAECs. The assay was also repeated with cardiac HMVECs.

HCAECs [2] = assay: Matrigel tube formation assay (HCAECs); format: cell-based, human; details: between 1 and 100 μM, 4 h
Description: as §1

HUVECs [3] = assay: Transwell insert cell migration assay (VEGF-induced); format: cell-based, human; details: 8 h
Description: The cell invasion assay was performed with a Transwell insert system (6.5 mm diameter inserts with 8.0 μm pores in a polycarbonate membrane situated in wells of 24 well polystrene, tissue culture treated plates, Corning Incorporated, Corning, N.Y.). The Transwell inserts were coated with 0.1% gelatin for 30 min and incubated in low serum medium for 1 h. Cultured HUVECs were trypsinized and then resuspended in low serum medium (0.5% fetal bovine serum without endothelial cell mitogen), and added at 50,000 cells per insert. The cells were allowed to adhere to the inserts for 30 min. Next, various concentrations of SsnB (0.0001, 0.001, 0.01, 0.1, 1, 10, and 100 μM) or vehicle control (0.1% DMSO) were added to the Transwell inserts. After 30 min, the medium in the lower chamber for the experimental groups was replaced with low serum medium containing 10 ng/ml VEGF and thus establishing a chemoattractant gradient between the top insert and lower chamber. For the negative control group, the medium was replaced with low serum medium (0.5% fetal bovine serum). The plates were incubated for 8 h at 37° C. During the incubation, the cells migrated through the pores of the Transwell insert towards the lower chamber. […] Cells were counted from four random fields observed with a 10× objective lens. […]

HUVECs [4] = assay: Cell cycle analysis, propidium iodide flow cytometry; format: cell-based, human
Description: Cell cycle analysis was performed using propidium iodide staining and flow cytometry. HUVECs (approximately 75% confluent) cultured in 6 well polystyrene culture plates coated with 0.1% gelatin were serum starved for 24 hours in low serum medium containing 0.5% fetal bovine serum and no endothelial cell mitogen to synchronize the cells in the G1/S phase. After 24 hours, the low serum medium was replaced with treatments of either 100 μM SsnB or vehicle control (0.1% DMSO) diluted in complete growth medium (10% fetal bovine serum with endothelial cell mitogen) in triplicate. The treated cells were incubated for 24, 30, and 36 hours. After incubation, the cells were trypsinized, transferred to 5 ml polysytrene round bottom tubes (12×75 mm), and centrifuged. The medium was aspirated, and the cells were washed with PBS. After fixing the cells with ice-cold 70% ethanol for 15 min, the cells were centrifuged and stained with propidium iodide for 30 min. The samples were then analyzed with a flow cytometer (Beckman Coulter FC500). The unstained and stained cell groups were used to calibrate the settings on the flow cytometer. The data were collected and analyzed with ModFit software.

HCAECs [5] = assay: Real time RT-PCR gene expression (HCAECs); format: cell-based, human; details: 24 h
Description: After a careful analysis of the microarray data, key genes (CDC6, CCNE2, KITLG, ALDH3A1, CCNB1, CDC2, HMMR, DIAPH3, ANLN, and CDKN3) were chosen for quantitative real-time PCR (qRT-PCR) to verify the gene expression results. HCAECs and HUVECs were exposed to SsnB or vehicle control for 24 h (as previously described in the microarray section). For RT-PCR, RNA was isolated from the cells with the RNeasy Mini kit as described previously. After forward and reverse primer kits (Qiagen, Valencia, Calif.) were selected, the RNA was amplified. The one-step RT-PCR reactions were completed on the BioRad iCycler thermal cycler system in the Instrumentation Resource Facility at the USC School of Medicine. The expression levels were normalized, and RNA levels were quantified.
Microarray data analysis, including data normalization (robust multi-array average), identification of differentially expressed genes (comparative analyses with dChip software), and heat map construction, was carried out to determine how SsnB affects gene expression and affected pathways (n=2 for HUVECs and n=3 for HCAECs). After a careful analysis of the microarray data, several key genes were chosen for qRT-PCR to verify the gene expression results. The genes were chosen based on the following criteria: fold change ≧2, p<0.05, unpaired t-test with a false discovery rate approximating 0%, appearing in both data sets (HUVECs and HCAECs), and gene function relating to cell proliferation and/or angiogenesis. For qRT-PCR, the expression levels were normalized to the housekeeping gene GAPDH, and RNA levels were compared between groups with the ΔΔCt method.

HUVECs [6] = assay: Cytotoxicity on HUVECs; format: cell-based, human; details: concentrations up to 100 μM
[7] = system: human aortic smooth muscle cells; assay: Cytotoxicity on human aortic smooth muscle cells; format: cell-based; details: concentrations up to 100 μM
[8] = system: Toll-like Receptors 2 and 4 (TLR2 and TLR4); details: mouse and human macrophages, prior research; cited from earlier work
[9] = synchronized HUVECs, 100 μM SsnB, 24, 30 and 36 hours, vs vehicle control
[10] = SsnB vs vehicle control, normalized to GAPDH

O=c1occ2c3c(ccc(O)c13)Oc1ccc(O)cc1-2 [SsnB, Sparstolonin B]
HUVEC tube formation (HUVECs [1]): dose-dependent inhibition
HCAEC tube formation on Matrigel (HCAECs [2]): dose-dependent inhibition
VEGF-induced cell migration inhibition, high concentrations (HUVECs [3]; between 0.1 and 100 μM): leveled off
VEGF-induced cell migration (HUVECs [3]; concentrations between 0.0001 and 0.1 μM, p<0.05): dose-dependent inhibition
G2/M blockage (HUVECs [4]; non-synchronized (no serum starvation) HUVECs): G2/M blockage was observed
percentage of cells in the G1 phase (HUVECs [4]; [9]): increase
percentage of cells in the S phase (HUVECs [4]; [9]): decrease
ALDH3A1 expression (qRT-PCR) (HCAECs [5]): 4620 % of controls
CCNE2 gene expression after SsnB exposure (qRT-PCR) (HCAECs [5]): 57 % of controls
CDC6 gene expression after SsnB exposure (qRT-PCR) (HCAECs [5]): 14 % of controls
KITLG expression (qRT-PCR) (HCAECs [5]): 260 % of controls
ALDH3A1 PCR 2^ΔΔCt value (HCAECs [5]; [10]): 46.2
ANLN PCR 2^ΔΔCt value (HCAECs [5]; [10]): 0.13
CCNB1 PCR 2^ΔΔCt value (HCAECs [5]; [10]): 0.13
CCNE2 PCR 2^ΔΔCt value (HCAECs [5]; [10]): 0.57
CDC2 PCR 2^ΔΔCt value (HCAECs [5]; [10]): 0.17
CDC6 PCR 2^ΔΔCt value (HCAECs [5]; [10]): 0.14
CDKN3 PCR 2^ΔΔCt value (HCAECs [5]; [10]): 0.22
DIAPH3 PCR 2^ΔΔCt value (HCAECs [5]; [10]): 0.26
HMMR PCR 2^ΔΔCt value (HCAECs [5]; [10]): 0.062
KITLG PCR 2^ΔΔCt value (HCAECs [5]; [10]): 2.6
cytotoxic effects (HUVECs [6]): does not exhibit cytotoxic effects
cytotoxic effects [7]: does not exhibit cytotoxic effects
inflammatory responses of macrophages to ligands for TLR2 and TLR4 [8]: selectively inhibiting
